The assay addresses human F508del-CFTR (Homo sapiens, UniProt P13569, DEL508-508). Put plainly: F508del-CFTR cell surface expression (corrector activity), DiscoveRx ß-galactosidase complementation chemiluminescence assay in recombinant U2OS cell line.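 On all read-outs here: U2OS cells co-expressing ProLink-tagged F508del-CFTR and a membrane-anchored enzyme acceptor, where more surface CFTR restores β-galactosidase activity measured by chemiluminescence.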 Conditions: U2OS cell line, 16h compound incubation; for EC50: EC50, F508del-CFTR cell surface expression, geomean values; for Emax: U2OS, in relation to the Emax of the corrector lumacaftor (=100%), arithmetic mean values.

Chain of human F508del-CFTR (P13569 with tags, fused parts or gaps DEL508-508): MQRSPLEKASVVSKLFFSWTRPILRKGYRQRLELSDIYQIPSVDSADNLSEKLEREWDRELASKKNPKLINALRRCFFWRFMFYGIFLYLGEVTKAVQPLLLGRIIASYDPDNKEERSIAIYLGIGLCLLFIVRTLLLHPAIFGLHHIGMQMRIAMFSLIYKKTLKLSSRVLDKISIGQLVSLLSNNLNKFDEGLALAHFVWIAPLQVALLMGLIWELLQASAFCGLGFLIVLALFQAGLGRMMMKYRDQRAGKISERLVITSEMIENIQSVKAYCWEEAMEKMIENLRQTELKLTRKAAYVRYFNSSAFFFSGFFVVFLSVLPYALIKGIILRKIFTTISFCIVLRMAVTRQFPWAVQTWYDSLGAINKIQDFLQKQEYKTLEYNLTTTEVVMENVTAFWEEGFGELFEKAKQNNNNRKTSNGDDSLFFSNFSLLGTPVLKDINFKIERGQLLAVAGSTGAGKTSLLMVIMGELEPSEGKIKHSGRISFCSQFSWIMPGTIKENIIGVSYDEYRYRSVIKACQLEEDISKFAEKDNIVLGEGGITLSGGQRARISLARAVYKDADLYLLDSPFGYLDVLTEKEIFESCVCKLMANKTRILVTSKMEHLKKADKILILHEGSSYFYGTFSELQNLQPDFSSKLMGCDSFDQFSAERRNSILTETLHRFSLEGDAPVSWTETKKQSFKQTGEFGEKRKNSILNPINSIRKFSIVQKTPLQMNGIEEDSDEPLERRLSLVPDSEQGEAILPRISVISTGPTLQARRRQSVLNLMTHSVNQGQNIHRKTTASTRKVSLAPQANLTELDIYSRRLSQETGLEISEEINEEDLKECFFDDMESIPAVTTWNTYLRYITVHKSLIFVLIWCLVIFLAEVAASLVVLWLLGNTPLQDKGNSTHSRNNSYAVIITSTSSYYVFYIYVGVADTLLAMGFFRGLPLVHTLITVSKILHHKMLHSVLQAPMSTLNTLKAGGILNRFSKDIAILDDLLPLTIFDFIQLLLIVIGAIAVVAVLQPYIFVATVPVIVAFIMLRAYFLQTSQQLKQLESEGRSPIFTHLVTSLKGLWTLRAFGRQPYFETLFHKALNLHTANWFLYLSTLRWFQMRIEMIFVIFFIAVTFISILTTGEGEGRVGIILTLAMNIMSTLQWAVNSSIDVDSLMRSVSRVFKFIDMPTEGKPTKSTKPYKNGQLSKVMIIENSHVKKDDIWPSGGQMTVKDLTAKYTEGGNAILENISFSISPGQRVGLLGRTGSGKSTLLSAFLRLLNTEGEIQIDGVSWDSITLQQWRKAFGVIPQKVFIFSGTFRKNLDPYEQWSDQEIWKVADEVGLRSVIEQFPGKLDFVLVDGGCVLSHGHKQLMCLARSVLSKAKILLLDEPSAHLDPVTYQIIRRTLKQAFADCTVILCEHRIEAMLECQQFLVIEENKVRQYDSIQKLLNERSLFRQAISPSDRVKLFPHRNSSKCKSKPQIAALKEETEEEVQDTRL

In the case of `[2H]C([2H])([2H])Oc1cccc(CCNC(=O)[C@@H]2CC(=O)N(C)[C@@H](CC(C)C)C(=O)N(CCC3CCCCC3)CC(=O)N[C@H](Cc3ccccc3)COc3cnc4c(F)cccc4c3C(=O)N2)c1` [Example 384, (3S,7S,13R)-13-benzyl-9-(2-cyclohexylethyl)-18-fluoro-7-isobutyl-N-(3-(methoxy-d3)phenethyl)-6-methyl-1,5,8,11-tetraoxo-1,2,3,4,5,6,7,8,9,10,11,12,13,14-tetradecahydro-[1]oxa[4,7,10,14]tetraazacycloheptadecino[17,16-c]quinoline-3-carboxamide], the EC50 is 54 nM and the maximal effect (Emax) turned out to be 282%.

With `COc1cccc(CCNC(=O)[C@@H]2CC(=O)N(C)[C@@H](CC(C)C)C(=O)N(C)C3(CC3)C(=O)N[C@H](Cc3ccccc3)COc3ccc4ccccc4c3C(=O)N2)c1` [Example 385, (3′S,7′S,13′R)-13′-benzyl-7′-isobutyl-N-(3-methoxyphenethyl)-6′,9′-dimethyl-1′,5′,8′,11′-tetraoxo-2′,3′,4′,5′,6′,7′,8′,9′,11′,12′,13′,14′-dodecahydro-1′H-spiro[cyclopropane-1,10′-naphtho[1,2-p][1]oxa[4,7,10,14]tetraazacycloheptadecine]-3′-carboxamide], the concentration giving a half-maximal response (EC50) turned out to be 191 nM and the maximal response (Emax) worked out at 326%.

For `COc1cccc(CCNC(=O)[C@@H]2CC(=O)N(C)[C@@H](CC(C)C)C(=O)NC3(CC3)C(=O)N[C@H](Cc3ccccc3)COc3ccc4ccccc4c3C(=O)N2)c1` [Example 386, (3′S,7′S,13′R)-13′-benzyl-7′-isobutyl-N-(3-methoxyphenethyl)-6′-methyl-1′,5′,8′,11′-tetraoxo-2′,3′,4′,5′,6′,7′,8′,9′,11′,12′,13′,14′-dodecahydro-1′H-spiro[cyclopropane-1,10′-naphtho[1,2-p][1]oxa[4,7,10,14]tetraazacycloheptadecine]-3′-carboxamide], the EC50 was determined as 393 nM and the Emax stood at 149%.

As for `CC(C)C[C@H]1C(=O)N2CCOC[C@@H]2C(=O)N[C@H](Cc2ccccc2)COc2ccc3ccccc3c2C(=O)N[C@H](C(=O)NCCc2ccc(-n3nccn3)cc2)CC(=O)N1C` [Example 387, (4aR,7R,18S,22S)-N-(4-(2H-1,2,3-triazol-2-yl)phenethyl)-7-benzyl-22-isobutyl-21-methyl-5,16,20,23-tetraoxo-1,2,4,4a,5,6,7,8,16,17,18,19,20,21,22,23-hexadecahydronaphtho[1,2-p][1,4]oxazino[3,4-f][1]oxa[4,7,10,14]tetraazacycloheptadecine-18-carboxamide], the EC50 is 342 nM and the Emax was found to be 215%.

In the case of `COc1cccc(CCNC(=O)[C@@H]2CC(=O)N(C)[C@@H](CC(C)C)C(=O)N3CCN(C4CC4)C[C@H]3C(=O)N[C@H](Cc3ccccc3)COc3cnc4ccccc4c3C(=O)N2)c1` [Example 388, (9S,13S,19aS,22R)-22-benzyl-18-cyclopropyl-13-isobutyl-N-(3-methoxyphenethyl)-12-methyl-7,11,14,20-tetraoxo-7,8,9,10,11,12,13,14,17,18,19,19a,20,21,22,23-hexadecahydro-16H-pyrazino[2′,11:6,7][1]oxa[4,7,10,14]tetraazacycloheptadecino[17,16-c]quinoline-9-carboxamide], the EC50 is 310 nM and the Emax is 163%.

Consider `COc1cccc(CCNC(=O)[C@@H]2CC(=O)N(C)[C@@H](CC(C)C)C(=O)N3CCN(C4CC4)C[C@@H]3C(=O)N[C@H](Cc3ccccc3)COc3cnc4ccccc4c3C(=O)N2)c1` [Example 389, (9S,13S,19aR,22R)-22-benzyl-18-cyclopropyl-13-isobutyl-N-(3-methoxyphenethyl)-12-methyl-7,11,14,20-tetraoxo-7,8,9,10,11,12,13,14,17,18,19,19a,20,21,22,23-hexadecahydro-16H-pyrazino[2′,1′:6,7][1]oxa[4,7,10,14]tetraazacycloheptadecino[17,16-c]quinoline-9-carboxamide], for which the EC50 was 115 nM and the maximum response (Emax) is 320%.

The term EC50 denotes the concentration that produces a half-maximal response. For orientation: Emax means the greatest response seen or fitted, relative to the assay's reference.

The values are drawn from US20240208992A1, “MACROCYCLES AS CFTR MODULATORS” (Idorsia Pharmaceuticals Ltd, priority 2021, published 2024).
